From PMC4650712, “Conversion of cell-survival activity of Akt into apoptotic death of cancer cells by two mutations on the BIM BH3 domain” (Cell Death & Disease, 2015)

What was measured:
[1] = tested on: PC3 cells; experiment: Immunofluorescence of cytochrome c, PC3 cells; assay type: cell-based, human
Description: (§1) For intracellular delivery, BH3BIM(I155R/E158S) was fused to the C-terminus of the cell penetration peptide (CPP) derived from HIV Tat (Figure 1). PC3 and HCT116 cells were treated with the CPP-BH3BIM(I155R/E158S) peptide, and the MTT assay was performed. […] We then measured the activity of Akt by examining the phosphorylation state of itself and its substrate GSK3β. […] To elaborate this observation, we examined the effect of the fusion peptide in three different human lung cancer cell lines. […] We then assessed the effect of the Akt activity by ectopically expressing wild-type Akt (Akt-WT), constitutively active Akt (myristoylated Akt; Akt-Myr) or kinase-dead-Akt (Akt-KD). […] The kinase activities of the three Akt versions were confirmed by examining GSK3β phosphorylation (Figures 6f and p-GSK3β). To know whether CPP-BH3BIM(I155R/E158S)-induced cell death might depend on BAX, the HCT116 BAX^+/− and the HCT116 BAX^−/− cell lines were transfected with an expression vector encoding AKT-Myr and the cells were treated with the peptide. […] The survival of the BAX^−/− cells despite the CPP-BH3BIM(I155R/E158S) treatment could be explained by an observation that the designed peptide only weakly binds to MCL-1 (not shown), which is a major inhibitor of BAK.[35] Presumably, both MCL-1 and BAK are expressed in these cells.[36]
Figure 6 CPP-fused BH3BIM(I155R/E158S) peptide induces death of PC3 cells. (a) Cell viability evaluated by the MTT assay 72 h after treatment of the peptide (0, 10 or 20 μM). N.S indicates non-significance. Error bars indicate S.D. (n=3). (b) The immunofluorescence images of PC3 and HCT116 cells treated with 20-μM CPP-BH3BIM(I155R/E158S). Cytochrome c (green) was detected by anti-cytochrome c antibody and FITC-conjugated secondary antibody, and the nucleus was stained by DAPI. The large boxes are the enlargement of the small boxes, highlighting the cytochrome c staining. (c) Western blot (WB) analysis to examine the effect of CPP-BH3BIM(I155R/E158S) on the phosphorylation of Akt (at Ser473) and GSK3β (at Ser9). PC3 cells were incubated with the peptide for 6 h at the indicated concentration. t-Akt and t-GSK3β stand for total Akt and GSK3β, respectively. (d) MTT assay to examine the cytotoxic effect of CPP-BH3BIM(I155R/E158S) on lung cancer cell lines. […] (e) Promotion of CPP-BH3BIM(I155R/E158S)-induced death of HCT116 cells by Akt. Cells were transfected with the indicated vectors for 24 h and incubated with the peptide for 72 h. Cell death was promoted by Akt-WT and Akt-Myr, but not by Akt-KD. (f) Phosphorylation of GSK3β (p-GSK3β) by Akt-WT and Akt-Myr, but not by Akt-KD. […]
Figure 7 The BH3BIM(I155R/E158S) sequence induces phosphorylation-dependent cell death. […] Percent of live cells were determined by average of 200 cells in three independent experiments. […]

[2] = tested on: HCT116 cells; experiment: Immunofluorescence of cytochrome c, HCT116 cells; assay type: cell-based, human; conditions: 20 μM
Description: (§2) For intracellular delivery, BH3BIM(I155R/E158S) was fused to the C-terminus of the cell penetration peptide (CPP) derived from HIV Tat (Figure 1). PC3 and HCT116 cells were treated with the CPP-BH3BIM(I155R/E158S) peptide, and the MTT assay was performed. […] We then measured the activity of Akt by examining the phosphorylation state of itself and its substrate GSK3β. […] To elaborate this observation, we examined the effect of the fusion peptide in three different human lung cancer cell lines. […] We then assessed the effect of the Akt activity by ectopically expressing wild-type Akt (Akt-WT), constitutively active Akt (myristoylated Akt; Akt-Myr) or kinase-dead-Akt (Akt-KD). […] The kinase activities of the three Akt versions were confirmed by examining GSK3β phosphorylation (Figures 6f and p-GSK3β). […]
(§3) Figure 6 CPP-fused BH3BIM(I155R/E158S) peptide induces death of PC3 cells. (a) Cell viability evaluated by the MTT assay 72 h after treatment of the peptide (0, 10 or 20 μM). […] Cytochrome c (green) was detected by anti-cytochrome c antibody and FITC-conjugated secondary antibody, and the nucleus was stained by DAPI. […]
Cells were seeded on a cover glass and incubated with the CCP-fused BH3BIM(I155R/E158S) peptide. […] The immunofluorescence signal was detected by fluorescence microscopy (Zeiss, Oberkochen, Germany).

[3] = tested on: Akt; experiment: Western blot of Akt phosphorylation (Ser473) in PC3 cells; assay type: cell-based; conditions: 6 h
Description: as §2, with “p-GSK3β). To know whether CPP-BH3BIM(I155R/E158S)-induced cell death might depend on BAX, the HCT116 BAX^+/− and the HCT116 BAX^−/− cell lines were transfected with an expression vector encoding AKT-Myr and the cells were treated with the peptide.” for “p-GSK3β).”
as §3

[4] = tested on: H1299; experiment: MTT assay, H1299 lung cancer cells; assay type: cell-based, human; conditions: PTEN-silenced
Description: as §2, with “p-GSK3β). To know whether CPP-BH3BIM(I155R/E158S)-induced cell death might depend on BAX, the HCT116 BAX^+/− and the HCT116 BAX^−/− cell lines were transfected with an expression vector encoding AKT-Myr and the cells were treated with the peptide.” for “p-GSK3β).”
as §3

[5] = tested on: A549; experiment: MTT assay, A549 lung cancer cells; assay type: cell-based, human; conditions: K-Ras mutation
Description: as §2, with “p-GSK3β). To know whether CPP-BH3BIM(I155R/E158S)-induced cell death might depend on BAX, the HCT116 BAX^+/− and the HCT116 BAX^−/− cell lines were transfected with an expression vector encoding AKT-Myr and the cells were treated with the peptide.” for “p-GSK3β).”
as §3

[6] = tested on: H23; experiment: MTT assay, H23 lung cancer cells; assay type: cell-based, human; conditions: wild-type K-Ras, normal Akt activity
Description: as §2, with “p-GSK3β). To know whether CPP-BH3BIM(I155R/E158S)-induced cell death might depend on BAX, the HCT116 BAX^+/− and the HCT116 BAX^−/− cell lines were transfected with an expression vector encoding AKT-Myr and the cells were treated with the peptide.” for “p-GSK3β).”
as §3

[7] = tested on: HCT116 cells; experiment: Death of HCT116 cells with ectopic Akt; assay type: cell-based; conditions: peptide 72 h
Description: as §1
Figure 6 CPP-fused BH3BIM(I155R/E158S) peptide induces death of PC3 cells. (a) Cell viability evaluated by the MTT assay 72 h after treatment of the peptide (0, 10 or 20 μM). N.S indicates non-significance. Error bars indicate S.D. (n=3). (b) The immunofluorescence images of PC3 and HCT116 cells treated with 20-μM CPP-BH3BIM(I155R/E158S). Cytochrome c (green) was detected by anti-cytochrome c antibody and FITC-conjugated secondary antibody, and the nucleus was stained by DAPI. The large boxes are the enlargement of the small boxes, highlighting the cytochrome c staining. (c) Western blot (WB) analysis to examine the effect of CPP-BH3BIM(I155R/E158S) on the phosphorylation of Akt (at Ser473) and GSK3β (at Ser9). […]

[8] = tested on: PC3 cells; experiment: Cell fractionation: cytochrome c release from mitochondria; assay type: cell-based; conditions: 6 h
Description: Figure 7 The BH3BIM(I155R/E158S) sequence induces phosphorylation-dependent cell death. (a) Cell viability by the MTT assay. One day after transfection of PC3 cells with an empty vector (EV) or a PTEN-expressing vector (PTEN), cells were treated for 12 h with AuNP-anti-GST DNA aptamer composite coated with the indicated BH3BIM peptide fused to GST (5 μM). (b) Intracellular delivery of the GST-fused peptides. Cells were washed with PBS three times to remove proteins attached to the plasma membrane. M1 stands for BH3BIM (E158S), M2 for BH3BIM (I155R/E158A), and M3 for BH3BIM (I155R/E158S). (c) Cell viability by trypan blue dye exclusion assay. To confirm the effect in (a), cells were incubated with indicated materials for 24 h and stained with trypan blue for 10 min. Percent of live cells were determined by average of 200 cells in three independent experiments. (d) Immunostaining of cytochrome c in PC3 cells. Cells were transfected (EV or PTEN), and incubated with the CPP-BH3BIM(I155R/E158S) peptide (CPP-peptide) for 48 h. […] Cells were incubated with CPP-BH3BIM(I155R/E158S) for 6 h and subjected to cell fractionation. […] (g) HEK293 cells were treated in the same way as in (a). Viable cells were evaluated 48 h after the treatment by the MTT assay. Error bars indicate the S.D. (n=3) […]

[9] = tested on: PARP; experiment: PARP cleavage; assay type: cell-based; conditions: PTEN-transfected; indicator of caspase activation
Description: Figure 7 The BH3BIM(I155R/E158S) sequence induces phosphorylation-dependent cell death. (a) Cell viability by the MTT assay. One day after transfection of PC3 cells with an empty vector (EV) or a PTEN-expressing vector (PTEN), cells were treated for 12 h with AuNP-anti-GST DNA aptamer composite coated with the indicated BH3BIM peptide fused to GST (5 μM). (b) Intracellular delivery of the GST-fused peptides. Cells were washed with PBS three times to remove proteins attached to the plasma membrane. M1 stands for BH3BIM (E158S), M2 for BH3BIM (I155R/E158A), and M3 for BH3BIM (I155R/E158S). (c) Cell viability by trypan blue dye exclusion assay. To confirm the effect in (a), cells were incubated with indicated materials for 24 h and stained with trypan blue for 10 min. Percent of live cells were determined by average of 200 cells in three independent experiments. (d) Immunostaining of cytochrome c in PC3 cells. Cells were transfected (EV or PTEN), and incubated with the CPP-BH3BIM(I155R/E158S) peptide (CPP-peptide) for 48 h. […] (e) PTEN blocked the cytochrome c release from mitochondria. Cells were incubated with CPP-BH3BIM(I155R/E158S) for 6 h and subjected to cell fractionation. […] (g) HEK293 cells were treated in the same way as in (a). Viable cells were evaluated 48 h after the treatment by the MTT assay. Error bars indicate the S.D. (n=3) […]

[10] = tested on: HEK293 cells; experiment: MTT assay, HEK293 cells; assay type: cell-based; conditions: AuNP-protein or CPP-peptide
Description: Figure 7 The BH3BIM(I155R/E158S) sequence induces phosphorylation-dependent cell death. (a) Cell viability by the MTT assay. One day after transfection of PC3 cells with an empty vector (EV) or a PTEN-expressing vector (PTEN), cells were treated for 12 h with AuNP-anti-GST DNA aptamer composite coated with the indicated BH3BIM peptide fused to GST (5 μM). (b) Intracellular delivery of the GST-fused peptides. Cells were washed with PBS three times to remove proteins attached to the plasma membrane. M1 stands for BH3BIM (E158S), M2 for BH3BIM (I155R/E158A), and M3 for BH3BIM (I155R/E158S). (c) Cell viability by trypan blue dye exclusion assay. To confirm the effect in (a), cells were incubated with indicated materials for 24 h and stained with trypan blue for 10 min. Percent of live cells were determined by average of 200 cells in three independent experiments. (d) Immunostaining of cytochrome c in PC3 cells. […] Viable cells were evaluated 48 h after the treatment by the MTT assay. […]
PC3 and HEK293 cells were incubated with the GST-BH3BIM(I155R/E158S) protein conjugated to AuNP-anti-GST DNA aptamer composite[37] after transfection with a PTEN expression vector (pCMV Flag WT-PTEN; addgene plasmid #22231). […] After removing excess solution and washing with PBS, the precipitated materials were dissolved in […] of dimethyl sulfoxide and quantified by measuring the absorbance at 540 nm. […]

[11] = tested on: PC3 cells; experiment: MTT viability assay, PC3 cells, CPP-fused peptide; conditions: 72 h, 0, 10 or 20 μM, n=3, PTEN-null, elevated Akt activity
[12] = tested on: GSK3β; experiment: Western blot of GSK3β phosphorylation (Ser9) in PC3 cells; conditions: 6 h

In the case of “YGRRARRRARREIWIAQELRRRGDSFNAYYAR [CPP-BH3BIM(I155R/E158S)]”, the apoptotic cell death ([1]; 20 μM, immunofluorescence) is reported as “underwent apoptotic cell death”, the cytochrome c distribution ([1]; 20 μM, immunofluorescence, untransfected PC3) is reported as “diffused in the cytoplasm and gradually accumulated in the nucleus” and the “cytochrome c staining pattern” value ([1]; EV-transfected PC3, 48 h) is reported as “diffused nuclear pattern”. For the same sequence, the “cytochrome c staining pattern” value ([1]; PTEN-expressing PC3, 48 h) was “Cytoplasmic puncta staining pattern”, the cytochrome c distribution [2] was “retained the puncta staining pattern” and the “phosphorylation of Akt (Ser473)” value [3] was “not Akt itself”. For the same sequence, the “sensitivity to the peptide” value [4] was “exhibited sensitivity to the peptide”, the “response to the peptide” value [5] was “moderate response” and the “response to the peptide” value [6] was “did not respond to this peptide”. For the same sequence, the “promotion of peptide-induced cell death” value ([7]; Akt-KD transfected 24 h) was “did not show an additive effect”, the “promotion of peptide-induced cell death” value ([7]; Akt-Myr transfected 24 h) was “promoted death of HCT116 cells” and the “promotion of peptide-induced cell death” value ([7]; Akt-WT transfected 24 h) was “promoted death of HCT116 cells”. The cytoplasmic cytochrome c [8] was “Increase of cytoplasmic cytochrome c”, the “increase of cytoplasmic cytochrome c with PTEN expression” value ([8]; PTEN-transfected) was “obviously blocked by PTEN expression” and the “PARP cleavage with PTEN” value [9] was “PTEN also blocked PARP cleavage”. The “viability of HEK293 cells (Supplementary Figure S6)” value [10] was “slightly increased cell viability without a statistical significance”, the cytotoxic activity [11] was “strong cytotoxic activity” and the “phosphorylation of GSK3β (Ser9)” value ([12]; PC3 cells, western blot) was “reduced the phosphorylation of GSK3β”. The p-S9-GSK3β ([12]; PTEN experiment (Figure 7e)) was “Reduction of p-S9-GSK3β”.
